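Tested at 5 concentrations; 48 h exposure; 96-well plates; endpoints linearly interpolated, else capped at highest concentration. TGI: total growth inhibition.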
Tests used:
Test in all cases: growth of human tumour cells (NCI), 48 h
NCI-H460 lung = test system: NCI-H460 lung
NCI-H23 lung = test system: NCI-H23 lung
K-562 leukemia = test system: K-562 leukemia
MOLT-4 leukemia = test system: MOLT-4 leukemia
MCF7 breast = test system: MCF7 breast
786-0 renal = test system: 786-0 renal
NCI/ADR-RES ovarian = test system: NCI/ADR-RES ovarian
T-47D breast = test system: T-47D breast
CCRF-CEM leukemia = test system: CCRF-CEM leukemia

Cc1cc(-c2[nH]c(C(=O)O)cc2I)on1
TGI (NCI-H460 lung): > 100 µM
TGI (NCI-H23 lung): > 100 µM
TGI (K-562 leukemia): > 100 µM
TGI (MOLT-4 leukemia): > 100 µM
TGI (MCF7 breast): > 100 µM
TGI (786-0 renal): > 100 µM
TGI (NCI/ADR-RES ovarian): > 100 µM

O=C(/C=C/c1cccc(Br)c1)c1cccs1
TGI (NCI-H460 lung): 31.6 µM
TGI (NCI-H23 lung): 41.6 µM
TGI (T-47D breast): 34 µM
TGI (K-562 leukemia): 16.6 µM
TGI (MOLT-4 leukemia): 53.2 µM
TGI (MCF7 breast): 33 µM
TGI (786-0 renal): 31.4 µM
TGI (NCI/ADR-RES ovarian): 56.9 µM
TGI (CCRF-CEM leukemia): 23.6 µM

COc1ccc2[nH]c(Cl)c(/C=C3/C(=O)Nc4cc(C)c(OC)cc43)c2c1
TGI (NCI-H460 lung): 12.9 µM
TGI (NCI-H23 lung): 19 µM
TGI (T-47D breast): 30.4 µM
TGI (K-562 leukemia): > 100 µM
TGI (MOLT-4 leukemia): > 100 µM
TGI (MCF7 breast): 14.4 µM
TGI (786-0 renal): 19.8 µM
TGI (NCI/ADR-RES ovarian): 6.47 µM
TGI (CCRF-CEM leukemia): 19.1 µM

COC(=O)C(C)(N=Cc1ccccc1)c1ccccc1 (centres undefined)
TGI (NCI-H460 lung): > 100 µM
TGI (NCI-H23 lung): > 100 µM
TGI (T-47D breast): > 100 µM
TGI (K-562 leukemia): > 100 µM
TGI (MOLT-4 leukemia): > 100 µM
TGI (MCF7 breast): > 100 µM
TGI (786-0 renal): > 100 µM
TGI (NCI/ADR-RES ovarian): > 100 µM
TGI (CCRF-CEM leukemia): > 100 µM

ClC(Cl)(Cl)C1=N[C@H]2[C@H](Br)[C@@H]3O[C@@H](c4ccccc4)[C@H](c4ccccc4)O[C@@H]3[C@H]2O1
TGI (NCI-H460 lung): 30 µM
TGI (NCI-H23 lung): 42.3 µM
TGI (T-47D breast): > 100 µM
TGI (K-562 leukemia): 54 µM
TGI (MOLT-4 leukemia): 45.7 µM
TGI (MCF7 breast): 32.6 µM
TGI (786-0 renal): 39.6 µM
TGI (NCI/ADR-RES ovarian): 65.2 µM
TGI (CCRF-CEM leukemia): 47.2 µM

CCOC(=O)N1CCN(c2ccc3c(C)cc(C)nc3n2)CC1
TGI (NCI-H460 lung): > 100 µM
TGI (NCI-H23 lung): > 100 µM
TGI (T-47D breast): > 100 µM
TGI (K-562 leukemia): > 100 µM
TGI (MOLT-4 leukemia): > 100 µM
TGI (MCF7 breast): > 100 µM
TGI (786-0 renal): > 100 µM
TGI (NCI/ADR-RES ovarian): > 100 µM
TGI (CCRF-CEM leukemia): > 100 µM

CCC1C(c2cccc(OC)c2O)c2cc3c(cc2OC1N1CCCC1)OCO3 (centres undefined)
TGI (NCI-H460 lung): 55.3 µM
TGI (NCI-H23 lung): > 100 µM
TGI (T-47D breast): 68.7 µM
TGI (K-562 leukemia): 38.7 µM
TGI (MOLT-4 leukemia): 45 µM
TGI (MCF7 breast): > 100 µM
TGI (786-0 renal): 41.2 µM
TGI (NCI/ADR-RES ovarian): 54.7 µM
TGI (CCRF-CEM leukemia): 46.7 µM

COC(=O)c1cc(NC(=O)c2cc(NC(=O)c3cc([N+](=O)[O-])cn3C)cn2C)cn1C
TGI (NCI-H460 lung): > 100 µM
TGI (NCI-H23 lung): > 100 µM
TGI (T-47D breast): > 100 µM
TGI (K-562 leukemia): > 100 µM
TGI (MOLT-4 leukemia): > 100 µM
TGI (MCF7 breast): > 100 µM
TGI (786-0 renal): > 100 µM
TGI (NCI/ADR-RES ovarian): > 100 µM
TGI (CCRF-CEM leukemia): > 100 µM

CN(C(=O)Cc1ccc(Cl)c(Cl)c1)[C@H]1CCCC[C@@H]1[N+]1(C)CCCC1
TGI (NCI-H23 lung): > 100 µM
TGI (T-47D breast): > 100 µM
TGI (K-562 leukemia): > 100 µM
TGI (MOLT-4 leukemia): > 100 µM
TGI (MCF7 breast): > 100 µM
TGI (786-0 renal): > 100 µM
TGI (NCI/ADR-RES ovarian): > 100 µM

Cn1c(C(C#N)c2nc(Cl)ncc2Br)nc2ccccc21 (centres undefined)
TGI (NCI-H460 lung): > 100 µM
TGI (NCI-H23 lung): > 100 µM
TGI (T-47D breast): > 100 µM
TGI (MOLT-4 leukemia): > 100 µM
TGI (786-0 renal): > 100 µM
TGI (NCI/ADR-RES ovarian): > 100 µM

O=C1Sc2ccc(Br)cc2C(=O)Sc2ccccc21
TGI (NCI-H460 lung): 34 µM
TGI (NCI-H23 lung): 36 µM
TGI (T-47D breast): 31 µM
TGI (K-562 leukemia): > 59.3 µM
TGI (MOLT-4 leukemia): 19.9 µM
TGI (MCF7 breast): 48.3 µM
TGI (786-0 renal): 25.6 µM
TGI (NCI/ADR-RES ovarian): 60 µM
TGI (CCRF-CEM leukemia): 7.47 µM

COc1ccccc1C1SCC(=O)N1c1ccc(-c2ccc(-n3c(-c4ccccc4)nc4ccccc4c3=O)cc2)cc1 (centres undefined)
TGI (NCI-H460 lung): > 100 µM
TGI (NCI-H23 lung): > 100 µM
TGI (T-47D breast): > 100 µM
TGI (K-562 leukemia): > 100 µM
TGI (MOLT-4 leukemia): > 100 µM
TGI (MCF7 breast): > 100 µM
TGI (786-0 renal): > 100 µM
TGI (NCI/ADR-RES ovarian): > 100 µM
TGI (CCRF-CEM leukemia): > 100 µM

Cc1ccc(OCC2OC(n3cnc4c(N(C)C)nc(Br)nc43)CC2Oc2ccc(C)cc2)cc1 (centres undefined)
TGI (NCI-H460 lung): > 100 µM
TGI (NCI-H23 lung): > 100 µM
TGI (T-47D breast): > 100 µM
TGI (K-562 leukemia): > 100 µM
TGI (MCF7 breast): > 100 µM
TGI (786-0 renal): > 100 µM
TGI (NCI/ADR-RES ovarian): > 100 µM
TGI (CCRF-CEM leukemia): > 100 µM

COC(=O)/C=C(\C)C(=O)N(C)c1ccccc1I
TGI (NCI-H460 lung): > 100 µM
TGI (NCI-H23 lung): > 100 µM
TGI (T-47D breast): > 100 µM
TGI (K-562 leukemia): > 100 µM
TGI (MOLT-4 leukemia): > 100 µM
TGI (MCF7 breast): > 100 µM
TGI (786-0 renal): > 100 µM
TGI (NCI/ADR-RES ovarian): > 100 µM
TGI (CCRF-CEM leukemia): > 100 µM

Cc1ccsc1/C=N/Nc1cc(C)c2cccc(C)c2n1
TGI (NCI-H23 lung): > 100 µM
TGI (T-47D breast): > 100 µM
TGI (MCF7 breast): > 100 µM
TGI (786-0 renal): > 100 µM
TGI (NCI/ADR-RES ovarian): > 100 µM

CC(C)[C@@H]1CC[C@@H](C)C[C@H]1OC(=O)/C=C1/C2C=CC(O2)C1C(=O)O[C@@H]1C[C@H](C)CC[C@H]1C(C)C (some centres undefined)
TGI (NCI-H460 lung): > 100 µM
TGI (NCI-H23 lung): > 100 µM
TGI (T-47D breast): > 100 µM
TGI (K-562 leukemia): > 100 µM
TGI (MOLT-4 leukemia): > 100 µM
TGI (MCF7 breast): > 100 µM
TGI (786-0 renal): > 100 µM
TGI (NCI/ADR-RES ovarian): > 100 µM
TGI (CCRF-CEM leukemia): > 100 µM

CC(C)C(C/C=C1\CC(CO)(COC(=O)c2ccccc2)OC1=O)C(C)C (centres undefined)
TGI (NCI-H460 lung): 43.7 µM
TGI (NCI-H23 lung): 38 µM
TGI (T-47D breast): > 100 µM
TGI (K-562 leukemia): 44.1 µM
TGI (MOLT-4 leukemia): 42.6 µM
TGI (MCF7 breast): 40.9 µM
TGI (786-0 renal): 28.3 µM
TGI (NCI/ADR-RES ovarian): 45 µM
TGI (CCRF-CEM leukemia): 44.1 µM

FC(F)(F)c1ccccc1N1CCN(c2nc(-c3cccs3)nc3ccc(Br)cc23)CC1
TGI (NCI-H460 lung): > 100 µM
TGI (NCI-H23 lung): > 100 µM
TGI (T-47D breast): > 100 µM
TGI (K-562 leukemia): > 100 µM
TGI (MOLT-4 leukemia): > 100 µM
TGI (MCF7 breast): 17.5 µM
TGI (786-0 renal): > 100 µM
TGI (NCI/ADR-RES ovarian): > 100 µM
TGI (CCRF-CEM leukemia): 39.8 µM

O=C1C(NCCc2ccc(O)c(O)c2)=CC(=O)c2ncccc21
TGI (NCI-H460 lung): 29.4 µM
TGI (NCI-H23 lung): > 78.3 µM
TGI (T-47D breast): 65.3 µM
TGI (K-562 leukemia): 20.2 µM
TGI (MOLT-4 leukemia): 34.6 µM
TGI (MCF7 breast): 15.8 µM
TGI (786-0 renal): 43.2 µM
TGI (NCI/ADR-RES ovarian): 25.1 µM
TGI (CCRF-CEM leukemia): 60.4 µM

CN(C)c1nc(NC23CC4CC(CC(C4)C2)C3)nc(N(C)C)n1
TGI (NCI-H460 lung): > 100 µM
TGI (NCI-H23 lung): > 100 µM
TGI (T-47D breast): 49.6 µM
TGI (K-562 leukemia): 7.84 µM
TGI (MOLT-4 leukemia): > 57.3 µM
TGI (MCF7 breast): > 63.3 µM
TGI (786-0 renal): > 89.5 µM
TGI (NCI/ADR-RES ovarian): > 100 µM
TGI (CCRF-CEM leukemia): 28.7 µM

Cc1ccc(S(=O)(=O)/N=C(\NN)Nc2ccc(Cl)cc2)cc1
TGI (NCI-H460 lung): > 100 µM
TGI (NCI-H23 lung): > 100 µM
TGI (T-47D breast): > 100 µM
TGI (K-562 leukemia): > 100 µM
TGI (MOLT-4 leukemia): > 100 µM
TGI (MCF7 breast): > 100 µM
TGI (786-0 renal): > 100 µM
TGI (NCI/ADR-RES ovarian): > 100 µM
TGI (CCRF-CEM leukemia): > 100 µM

CCCCCCCCCCCCCCCCCCNc1ccn(C2OC(COP(=O)(O)OCC3CCC(n4cnc5c(=O)[nH]cnc54)O3)C(O)C2O)c(=O)n1 (centres undefined)
TGI (NCI-H460 lung): > 100 µM
TGI (NCI-H23 lung): > 100 µM
TGI (T-47D breast): > 100 µM
TGI (MOLT-4 leukemia): > 100 µM
TGI (MCF7 breast): > 100 µM
TGI (786-0 renal): > 100 µM
TGI (NCI/ADR-RES ovarian): > 100 µM
TGI (CCRF-CEM leukemia): > 100 µM

COC(=O)c1ccccc1C#CC#Cc1ccccc1C(=O)OC
TGI (NCI-H460 lung): > 10 µM
TGI (NCI-H23 lung): > 10 µM
TGI (T-47D breast): > 10 µM
TGI (K-562 leukemia): > 10 µM
TGI (MOLT-4 leukemia): > 10 µM
TGI (MCF7 breast): > 10 µM
TGI (786-0 renal): > 10 µM
TGI (NCI/ADR-RES ovarian): > 10 µM
TGI (CCRF-CEM leukemia): > 10 µM

Reference: PubChem BioAssay (NCI)
